According to patent US6867192B1, “Compounds useful in the treatment of inflammatory diseases” (priority 1998, dated 2005):

These compounds were tested against T1, integrin VLA-4, expressed on the Jurkat J6 (human lymphoblast cell line) cell membrane with VCAM-1 (Homo sapiens, UniProt P05556+P13612) (assay: Jurkat J6/VCAM-1 adhesion assay). Conditions: Jurkat J6 cell adhesion to VCAM-1, 1 mM MnCl2; mean of n experiments.
T1 construct: integrin VLA-4, expressed on the Jurkat J6 (human lymphoblast cell line) cell membrane; endogenous in cells; host or cells: Jurkat J6 cells (integrin). zzVCAM-1 was made in house in Drosophila melanogaster S2 cells
Assay type: cell-based
Method: (1) Jurkat J6/VCAM-1 Adhesion Assay
This assay was used to investigate the interaction of the integrin VLA-4, expressed on the Jurkat J6 (human lymphoblast cell line) cell membrane with VCAM-1. Polystyrene 96-well microtitre plates were coated with human immunoglobulin G (IgG; Sigma Chemicals, UK, Product No. 14506) at a concentration of 0.05 mg ml^−1 in bicarbonate buffer (36 mM NaHCO3 and 22 mM Na2CO3, prepared in Dulbecco's phosphate buffered saline at pH 9.8 (PBS); Sigma Chemicals, UK, Product No. 14190-094) for 2 hours at 37° C. This solution was then aspirated and the plates were washed twice with PBS.
VCAM-1 was prepared by cloning its constituent seven domains into a Drosophila expression system with a zz (Protein A) tag. This zzVCAM-1 was then expressed from Drosophila melanogaster S2 cell culture, induced with copper. Protease inhibitors were added and the culture supernatant was clarified either by filtration through a 0.2 μm filter or by centrifugation. The zzVCAM-1 was then purified from this clarified medium using an IgG agarose column, equilibrated with either 20 mM sodium phosphate pH 7.2 alone or in the presence of 0.5M sodium chloride. Elution of zzVCAM-1 from the column was mediated using 3M ammonium thiocyanate, which was subsequently removed using a G25 desalting column, equilibrated with 20 mM sodium phosphate, pH 7.2. The purified zzVCAM-1 was then concentrated to a small volume (Amicon stirred cell concentrators) until a concentration of 62.5 ng ml^−1 was obtained, calculated using the extinction coefficient value.
This solution of zzVCAM-1 was then incubated overnight at 4° C. in the IgG coated microtitre plates with 3% bovine serum albumin (BSA) in PBS, followed by aspiration and two further washes with PBS. A concentration of the Jurkat J6 cells (6×10^6 cels ml^−1), grown in cell media RPMI 1640 (HyClone Ltd, Product No. B-9106-L) supplemented with 10% heat inactivated fetal calf serum (FCS; Gibco BRL, Product No. 10099-075) and 2 mM L-glutamine, were labelled with 10 μM of the fluorescent dye, 2′, 7′-bis(2-carboxyethyl)-5-(e6)-carboxyfluorescein acetoxymethyl ester (BCECF-AM; Molecular Probes Inc, Product No. B-1150) at 37° C. for 10 minutes. The excess dye was then removed by centrifugation at 500×g for 5 minutes and the cells were resuspended at a concentration of 1.2×10^7 cells ml^−1 in Hank's balanced salt solution (HBSS; Gibco BRL, Product No. 14190-094).
Equal volumes of compounds (dissolved in an appropriate solvent and diluted in HBSS containing 1 mM MnCl2) and the labelled Jurkat J6 cells, were added to the VCAM-1 coated plates and adhesion was allowed to proceed for 30 minutes at 37° C. Non, or loosely adhered cells, were removed by inversion of the plate and blotted with tissue paper. Two washes with PBS and further blotting were then performed, before the addition of 2% detergent (Triton-X®; Sigma Chemicals UK, Product No. X100). Counting was undertaken in a Wallac Viktor™ Fluorimeter, where low fluorescence values were indicative of compounds which had inhibited adhesion. All samples were assayed in singlicate and the following four parameter curve fit, shown by Equation (I) was applied: [formula]
Where a is the minimum, b is the Hill slope, c is the IC50 and d is the maximum. (Maximum and minimum values are those compared to adhesion in the absence of compound and in the presence of the dipotassium salt of 2 mM EDTA; Sigma Chemicals, UK, Product No. ED2P). Data is presented as the mean pIC50 with the standard error of the mean of n experiments.

T1 sequence (P13612 34-1032): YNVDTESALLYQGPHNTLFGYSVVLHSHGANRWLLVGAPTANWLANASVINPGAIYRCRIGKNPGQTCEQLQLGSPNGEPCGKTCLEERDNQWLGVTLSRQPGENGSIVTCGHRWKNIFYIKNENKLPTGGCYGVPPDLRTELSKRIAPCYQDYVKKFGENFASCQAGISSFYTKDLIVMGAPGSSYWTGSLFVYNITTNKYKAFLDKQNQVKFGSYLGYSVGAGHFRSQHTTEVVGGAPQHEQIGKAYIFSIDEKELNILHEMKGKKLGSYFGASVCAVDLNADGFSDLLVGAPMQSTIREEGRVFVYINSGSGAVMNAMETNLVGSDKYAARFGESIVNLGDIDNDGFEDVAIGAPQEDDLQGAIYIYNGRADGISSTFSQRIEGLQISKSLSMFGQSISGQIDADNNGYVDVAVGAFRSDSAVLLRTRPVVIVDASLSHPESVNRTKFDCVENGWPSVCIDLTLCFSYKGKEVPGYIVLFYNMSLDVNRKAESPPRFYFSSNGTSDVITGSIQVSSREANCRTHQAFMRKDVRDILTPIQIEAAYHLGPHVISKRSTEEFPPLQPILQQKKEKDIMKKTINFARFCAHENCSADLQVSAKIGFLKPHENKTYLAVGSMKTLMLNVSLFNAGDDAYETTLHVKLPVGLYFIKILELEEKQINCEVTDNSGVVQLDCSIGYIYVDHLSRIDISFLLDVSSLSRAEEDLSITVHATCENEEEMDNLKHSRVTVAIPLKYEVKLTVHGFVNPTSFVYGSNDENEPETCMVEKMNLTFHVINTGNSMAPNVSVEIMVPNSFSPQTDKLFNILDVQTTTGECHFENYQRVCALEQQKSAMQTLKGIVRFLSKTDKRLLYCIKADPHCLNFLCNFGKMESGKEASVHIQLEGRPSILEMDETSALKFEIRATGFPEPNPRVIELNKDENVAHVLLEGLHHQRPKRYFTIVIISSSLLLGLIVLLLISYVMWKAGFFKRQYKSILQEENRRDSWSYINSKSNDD
T1 sequence (P05556 21-798): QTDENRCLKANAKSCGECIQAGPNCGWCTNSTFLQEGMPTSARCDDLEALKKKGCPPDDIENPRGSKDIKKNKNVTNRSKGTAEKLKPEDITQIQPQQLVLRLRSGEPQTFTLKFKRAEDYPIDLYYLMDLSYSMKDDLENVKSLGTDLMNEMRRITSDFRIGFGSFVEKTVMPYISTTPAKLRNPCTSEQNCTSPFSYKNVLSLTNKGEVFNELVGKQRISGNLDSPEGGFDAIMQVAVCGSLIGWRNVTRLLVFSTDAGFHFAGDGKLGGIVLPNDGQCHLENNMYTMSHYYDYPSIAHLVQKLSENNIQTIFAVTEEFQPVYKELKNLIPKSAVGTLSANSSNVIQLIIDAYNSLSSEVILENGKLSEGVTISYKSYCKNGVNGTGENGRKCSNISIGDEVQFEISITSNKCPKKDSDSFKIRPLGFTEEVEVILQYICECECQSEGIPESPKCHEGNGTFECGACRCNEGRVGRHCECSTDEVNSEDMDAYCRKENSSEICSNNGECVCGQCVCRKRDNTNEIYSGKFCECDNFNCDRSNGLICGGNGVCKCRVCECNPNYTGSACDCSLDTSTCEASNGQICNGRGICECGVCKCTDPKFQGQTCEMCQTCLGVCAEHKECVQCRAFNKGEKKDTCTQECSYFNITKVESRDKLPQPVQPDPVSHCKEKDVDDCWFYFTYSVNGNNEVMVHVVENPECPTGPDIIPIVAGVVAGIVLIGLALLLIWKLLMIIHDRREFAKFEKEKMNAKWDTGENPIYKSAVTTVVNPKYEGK

SMILES | IC50 [nM]
CC(C)C[C@H](NC(=O)COc1ccccc1C(=O)c1ccccc1)C(=O)N[C@@H](Cc1ccc(OC(=O)N2CCC(NC(=O)Cc3ccccc3)CC2)cc1)C(=O)O [Example 1, (2S)-2-[((2S)-2-{[2-(2-Benzoylphenoxy)acetyl]amino}-4-methylpentanoyl)amino]-3-{4-[({4-[(2-phenylacetyl)amino]-1-piperidinyl}carbonyl)oxy]phenyl}propanoic acid] | 13.2
CC(C)C[C@H](NC(=O)c1cccc2c1oc1ccccc12)C(=O)N[C@@H](Cc1ccc(OC(=O)N2CCOCC2)cc1)C(=O)O [Example 10, (2S)-2-({(2S)-2-[(Dibenzo[b,d]furan-4-ylcarbonyl)amino]-4-methylpentanoyl}amino)-3-{4-[(4-morpholinylcarbonyl)oxy]phenyl}propanoic acid] | 8.32
CC(C)C[C@H](NC(=O)c1cccc2c1oc1ccccc12)C(=O)N[C@@H](Cc1ccc(OC(=O)N2CCN(C(=O)c3ccco3)CC2)cc1)C(=O)O [Example 11, (2S)-2-({(2S)-2-[(Dibenzo[b,d]furan-4-ylcarbonyl)amino]-4-methylpentanoyl}amino)-3-[4-({[4-(2-furoyl)-1-piperazinyl]carbonyl}oxy)phenyl]propanoic acid] | 8.32
CC(C)C[C@H](NC(=O)c1cccc2c1oc1ccccc12)C(=O)N[C@@H](Cc1ccc(OC(=O)N2CCN(C(=O)c3ccccc3)CC2)cc1)C(=O)O [Example 12, (2S)-3-(4-{[(4-Benzoyl-1-piperazinyl)carbonyl]oxy}phenyl)-2-({(2S)-2-[(dibenzo[b,d]furan-4-ylcarbonyl)amino]-4-methylpentanoyl}amino)propanoic acid] | 11
CC(C)C[C@H](NC(=O)c1cccc2c1oc1ccccc12)C(=O)N[C@@H](Cc1ccc(OC(=O)N2CCC(NC(=O)Cc3ccccc3)CC2)cc1)C(=O)O [Example 13, (2S)-2-({(2S)-2-[(Dibenzo[b,d]furan-4-ylcarbonyl)amino]-4-methylpentanoyl}amino)-3-{4-[({4-[(2-phenylacetyl)amino]-1-piperidinyl}carbonyl)oxy]phenyl}propanoic acid] | 25.7
CC(=O)N1CCN(C(=O)Oc2ccc(C[C@H](NC(=O)[C@H](CC(C)C)NC(=O)COc3ccccc3I)C(=O)O)cc2)CC1 [Example 15, (2S)-3-(4-{[(4-Acetyl-1-piperazinyl)carbonyl]oxy}phenyl)-2-[((2S)-2-{[2-(2-iodophenoxy)acetyl]amino}-4-methylpentanoyl)amino]propanoic acid] | 2.69
CC(=O)N1CCN(C(=O)Oc2ccc(C[C@H](NC(=O)[C@H](CC(C)C)NC(=O)c3cccc4c3oc3ccccc34)C(=O)O)cc2)CC1 [Example 18, (2S)-3-(4-{[(4-Acetyl-1-piperazinyl)carbonyl]oxy}phenyl)-2-({(2S)-2-[(dibenzo[b,d]furan-4-ylcarbonyl)amino]-4-methylpentanoyl}amino)propanoic acid] | 3.72
CC(C)C[C@H](NC(=O)COc1ccc(Cl)cc1Cl)C(=O)N[C@@H](Cc1ccc(OC(=O)N2CCN(C(=O)c3ccccc3)CC2)cc1)C(=O)O [Example 22, (2S)-3-(4-{[(4-Benzoyl-1-piperazinyl)carbonyl]oxy}phenyl)-2-[((2S)-2-{[2-(2,4-dichlorophenoxy)acetyl]amino}-4-methylpentanoyl)amino]propanoic acid] | 22.4

The remaining lines, values ahead:

IC50 [nM] | SMILES
9.33 | CC(C)C[C@H](NC(=O)COc1cc2ccccc2cc1C(=O)N1CCCCC1)C(=O)N[C@@H](Cc1ccc(OC(=O)N2CCC(NC(=O)Cc3ccccc3)CC2)cc1)C(=O)O [Example 2, (2S)-2-({(2S)-4-Methyl-2-[(2-{[3-(1-piperidinylcarbonyl)-2-naphthyl]oxy}acetyl)amino]pentanoyl}amino)-3-{4-[({4-[(2-phenylacetyl)amino]-1-piperidinyl}carbonyl)oxy]phenyl}propanoic acid]
41.7 | CC(C)C[C@H](NC(=O)COc1ccc(C(=O)N2CCCCC2)cc1)C(=O)N[C@@H](Cc1ccc(OC(=O)N2CCC(NC(=O)C(C3CCCCC3)C3CCCCC3)CC2)cc1)C(=O)O [Example 3, (2S)-3-{4-[({4-[(2,2-Dicyclohexylacetyl)amino]-1-piperidinyl}carbonyl)oxy]phenyl}-2-{[(2S)-4-methyl-2-({2-[4-(1-piperidinylcarbonyl)phenoxy]acetyl}amino)pentanoyl]amino}propanoic acid]
16.6 | CC(C)C[C@H](NC(=O)COc1ccc(C(=O)N2CCCCC2)cc1)C(=O)N[C@@H](Cc1ccc(OC(=O)N2CCOCC2)cc1)C(=O)O [Example 4, (2S)-2-{[(2S)-4-Methyl-2-({2-[4-(1-piperidinylcarbonyl)phenoxy]acetyl}amino)pentanoyl]amino}-3-{4-[(4-morpholinylcarbonyl)oxy]phenyl}propanoic acid]
7.76 | CC(C)C[C@H](NC(=O)COc1ccc(C(=O)N2CCCCC2)cc1)C(=O)N[C@@H](Cc1ccc(OC(=O)N2CCC(C(N)=O)CC2)cc1)C(=O)O [Example 5, (2S)-3-[4-({[4-(Aminocarbonyl)-1-piperidinyl]carbonyl}oxy)phenyl]-2-{[(2S)-4-methyl-2-({2-[4-(1-piperidinylcarbonyl)phenoxy]acetyl}amino)pentanoyl]amino}propanoic acid]
5.62 | CC(C)C[C@H](NC(=O)COc1ccccc1C(=O)c1ccccc1)C(=O)N[C@@H](Cc1ccc(OC(=O)N2CCC(C(N)=O)CC2)cc1)C(=O)O [Example 6, (2S)-3-[4-({[4-(Aminocarbonyl)-1-piperidinyl]carbonyl}oxy)phenyl]-2-[((2S)-2-{[2-(2-benzoylphenoxy)acetyl]amino}-4-methylpentanoyl)amino]propanoic acid]
2.63 | CC(C)C[C@H](NC(=O)COc1ccc(C(N)=O)cc1)C(=O)N[C@@H](Cc1ccc(OC(=O)N2CCC(C(N)=O)CC2)cc1)C(=O)O [Example 7, (2S)-2-{[(2S)-2-({2-[4-(Aminocarbonyl)phenoxy]acetyl}amino)-4-methylpentanoyl]amino}-3-[4-({[4-(aminocarbonyl)-1-piperidinyl]carbonyl}oxy)phenyl]propanoic acid]
42.7 | CC(C)C[C@H](NC(=O)COc1ccccc1I)C(=O)N[C@@H](Cc1ccc(OC(=O)N2CCC(NC(=O)CC3CCCCC3)CC2)cc1)C(=O)O [Example 8, (2S)-3-{4-[({4-[(2-Cyclohexylacetyl)amino]-1-piperidinyl}carbonyl)oxy]phenyl}-2-[((2S)-2-{[2-(2-iodophenoxy)acetyl]amino}-4-methylpentanoyl)amino]propanoic acid]
26.3 | CC(C)C[C@H](NC(=O)COc1ccccc1I)C(=O)N[C@@H](Cc1ccc(OC(=O)N2CCC(NC(=O)C(C3CCCCC3)C3CCCCC3)CC2)cc1)C(=O)O [Example 9, (2S)-3-{4-[({4-[(2,2-Dicyclohexylacetyl)amino]-1-piperidinyl}carbonyl)oxy]phenyl}-2-[((2S)-2-{[2-(2-iodophenoxy)acetyl]amino}-4-methylpentanoyl)amino]propanoic acid]
16.6 | CC(C)C[C@H](NC(=O)COc1ccccc1I)C(=O)N[C@@H](Cc1ccc(OC(=O)N2CCC(NC(=O)Cc3ccccc3)CC2)cc1)C(=O)O [Example 14, (2S)-2-[((2S)-2-{[2-(2-Iodophenoxy)acetyl]amino}-4-methylpentanoyl)amino]-3-{4-[({4-[(2-phenylacetyl)amino]-1-piperidinyl}carbonyl)oxy]phenyl}propanoic acid]
7.59 | CC(C)C[C@H](NC(=O)COc1ccccc1I)C(=O)N[C@@H](Cc1ccc(OC(=O)N2CCN(C(=O)c3ccccc3)CC2)cc1)C(=O)O [Example 19, (2S)-3-(4-{[(4-Benzoyl-1-piperazinyl)carbonyl]oxy}phenyl)-2-[((2S)-2-{[2-(2-iodophenoxy)acetyl]amino}-4-methylpentanoyl)amino]propanoic acid]
